The values that follow come from PMC3753754, “Andrographis paniculata Extract and Andrographolide Modulate the Hepatic Drug Metabolism System and Plasma Tolbutamide Concentrations in Rats” (Evidence-based Complementary and Alternative Medicine : eCAM, 2013).

Data set [1] is described as follows: Pharmacokinetics of tolbutamide in control, APE-pretreated and andrographolide-pretreated rats. Format: in vivo, Sprague-Dawley rats. The following applies: male, Sprague-Dawley, rat, plasma, control rats (methyl cellulose vehicle for 5 days), tolbutamide 20 mg/kg oral. The method, then: Seven-week-old male Sprague-Dawley rats cannulated in the jugular vein were purchased from the Bio LASCO Experimental Animal Center (Taipei, Taiwan). The animals were fed a standard rat diet and were randomly assigned into control, APE-treated, and andrographolide-treated groups (n = 5). Rats were housed in plastic cages in a room kept at 23 ± 1°C and 60 ± 5% relative humidity with a 12-hour light and dark cycle. Food and drinking water were available ad libitum. Control rats were orally administered methyl cellulose. […] After the 5th daily dose, rats were deprived of food overnight. On day 6, a 20 mg/kg oral dose of tolbutamide, as a solution in Cremophor EL (polyoxyl 35 hydrogenated castor oil, Sigma)/ethanol/water (30/10/60, v/v/v), was administered to each rat. After the administration of tolbutamide, serial blood samples were collected up to 12 h after dosing from each rat. The animals were then killed by exsanguination, and the livers were collected.
Tolbutamide was prepared in a solution of Cremophor EL/ethanol/water (30/10/60, v/v/v). After administration, blood samples (~200 μL) were collected from the tail vein of each rat at 0.25, 0.5, 1, 2, 4, 8, and 12 h after dosing. Plasma was separated from blood by centrifugation (4000 ×g for 20 min at 4°C). An aliquot of 50 μL plasma was mixed with 100 μL acetonitrile and then centrifuged at 10,000 ×g for 15 min at 4°C. The supernatant was used to determine the concentration of tolbutamide by LC/MS. Calibration standards of tolbutamide were prepared by serial dilution of a tolbutamide stock solution with blank plasma, yielding final concentrations of tolbutamide ranging from 1 to 300 μg/mL of plasma.
The HPLC system consisted of an Agilent 1100 series LC System (Palo Alto, CA) and an Agilent Zorbax Eclipse XDB-C8 column (3 μm, 3.0 mm × 150 mm), interfaced to an Agilent MSD mass spectrometer equipped with an electrospray ionization source. Column temperature was set at 25°C. The initial mobile phase composition was 30% acetonitrile containing 10 mM ammonium acetate (solvent A) and 70% of 0.1% formic acid (solvent B). The following gradient system was used: 30% A to 50% A (0-1 min), 50% A to 98% A (1–3 min), 98% A (3–9 min), 98% A to 30% A (9-10 min), and 30% A (10–15 min). The flow rate was 0.5 mL/min. Sample injection volume was 10 μL. The MS data acquisition was via selected ion monitoring. The positive ion of the testing compound was selected, and the peak size was measured. The area under the plasma tolbutamide concentration versus time curve (AUC) was calculated by using the trapezoidal method.

Data set [2] is described as follows: Plasma tolbutamide concentration in high-fat diet-induced obese mice. Format: in vivo, C57BL/6 mice. The following applies: C57BL/6, mouse, 2 h after dosing 20 mg/kg oral tolbutamide, control obese mice (methyl cellulose vehicle). Here is the method:
Eleven-month-old high-fat diet-fed (45% of energy from fat; Research Diet Inc., New Brunswick, NJ) C57BL/6 mice were obtained from the National Health Research Institute (Miaoli, Taiwan). Control mice were orally administered 0.5% methyl cellulose (10 mL/kg). […] After the 5th daily dose, the mice were deprived of food overnight. On day 6, a 20 mg/kg oral dose of tolbutamide, as a solution in Cremophor EL/ethanol/water (30/10/60, v/v/v), was administered to each mouse. Thirty minutes later, a 1 g/kg dose of glucose, as a solution in water, was administered orally according to the method described by Zong et al.. Serial blood samples were collected up to 8 h after the glucose dose from each mouse. The animals were then killed by exsanguination and the livers collected.
Tolbutamide was prepared in a solution of Cremophor EL/ethanol/water (30/10/60, v/v/v). […]
The HPLC system consisted of an Agilent 1100 series LC System (Palo Alto, CA) and an Agilent Zorbax Eclipse XDB-C8 column (3 μm, 3.0 mm × 150 mm), interfaced to an Agilent MSD mass spectrometer equipped with an electrospray ionization source. […] The positive ion of the testing compound was selected, and the peak size was measured. The area under the plasma tolbutamide concentration versus time curve (AUC) was calculated by using the trapezoidal method.

A word on the MRT: it is a mean duration of stay, worked out from the concentration-time curve. On to `CCCCNC(=O)NS(=O)(=O)c1ccc(C)cc1` [tolbutamide], for which, in data set [1], the mean residence time MRT came out at 7.9 ± 1.6 h. Moreover, in data set [1] (read-out: AUC0–12 h of plasma tolbutamide), the AUC(0-t) was determined as 1390 ± 262 µg·h/mL. Moreover, in data set [1] (read-out: C max of tolbutamide), the Cmax came to 151 ± 21 µg/mL. The Tmax in data set [1] (read-out: T max of tolbutamide) came to 1.6 ± 0.5 h. Also, the concentration at 2 h in data set [2] is 124 ± 32 µg/mL.
